From doi:10.1101/2025.06.19.660642, “Discovery of orally bioavailable Zika and West Nile Virus antiviral compounds targeting the NS2B-NS3 protease” (bioRxiv, 2025)
Converted amounts (≈) assume the structure as drawn. Where two headings read alike, the source gives them in different places.

Assays:
ZIKV NS2B-NS3 protease = molecular target: T1, ZIKV NS2B-NS3 protease (Zika virus, UniProt A0A024B7W1); assay: ZIKV NS2B-NS3 protease biochemical FRET assay; details: for Ligand efficiency (LE): Ligand efficiency = pKi / heavy atom count
T1 construct: directed at the co-expressed ZIKV NS2B-NS3 protease

WNV NS2B-NS3 protease = molecular target: T2, WNV NS2B-NS3 protease (West Nile virus, UniProt P06935); assay: WNV NS2B-NS3 protease biochemical inhibition
T2 construct: some activity against the WNV NS2B-NS3 protease

ZIKV [1] = assay: ZIKV antiviral assay (virus-induced cytopathy) in Vero E6 cells with P-gp inhibitor; format: cell-based; details: Zika virus; for EC50: Vero C1008, 168 h, read-out: ZIKV EC50
Experimental: (§1) Figure 5. (A) Further characterization of ASAP-0027808. Papp was determined in MDR1-MDCK cells. Antiviral assays were performed in Vero E6 cells in a 7-day infection using 0.5 uM CP100356 as a P-gp inhibitor (see Supporting Information for more details). (B) The compound was successfully crystallized with ZIKV NS2B-NS3. ASAP-0016806 and ASAP-0027808 both appear to interact with the same residues (catalytic triad His51/Asp75/Ser135 colored yellow, other key residues Tyr161, NS2B Ser81, and NS2B Asp83 colored green). (C) Dose-dependent suppression of ZIKV-induced cytopathy in VeroE6 cells (n=2); no changes to cell viability of uninfected cells treated with the inhibitor was observed. Cells were co-treated with 0.5 μM CP100356 (as P-gp inhibitor). TEXT PRINTED IN THE PICTURE: (A) ASAP-0027808: ZIKV NS2B-NS3 Ki (μM): 0.090; ZIKV EC50 / CC50 (μM): 4.6 / >50; WNV NS2B-NS3 Ki (μM): 2.9; MW (g/mol): 313; CLint,app, HLM (μL/min/mg): < 10; MDR1-MDCK Papp A→B, B→A (10^-6 cm/sec): 2.0 ,11.0; Kinetic solubility (pH 7.4, μM): 279; LogD: 0.9

[2] = Cytotoxicity in uninfected Vero E6 cells; format: cell-based; details: African green monkey
Experimental: as §1

Vero E6 cells = assay: Cytotoxicity in uninfected Vero E6 cells; format: cell-based
Experimental: as §1

urokinase = molecular target: T3, urokinase (Homo sapiens, UniProt P00749); assay: Eurofins human protease selectivity panel; format: biochemical; details: read-out: inhibitory activity against urokinase
T3 construct: Eurofins
Source text: Upon crystallization in the active site of ZIKV NS2B-NS3, we noted the compound participating with most of the same residues as ASAP-0016806 (Figure 5B): an aromatic interaction with Tyr161, a hydrogen-bonding interaction with Gly151, an aromatic interaction with His51, and an electrostatic interaction with Asp83 (with a possible additional hydrogen bonding interaction to Ser81).

MDR1-MDCK permeability = format: in vitro ADME; details: dog; for Papp A→B: MDCK-MDR1, A→B; for Papp B→A: MDCK-MDR1, B→A
Experimental: as §1

Kinetic solubility = details: pH 7.4
[3] = Microsomal clearance, HLM; details: human, microsomes
ZIKV [4] = assay: ZIKV antiviral assay in SH-SY5Y cells; format: cell-based; details: Zika virus
WNV = WNV antiviral assay in Vero cells with P-gp inhibitor; format: cell-based; details: West Nile virus, read-out: WNV EC50 (Vero cells + Pgpi)
[5] = Murine in vivo pharmacokinetics and tolerability; parameters: species or system mice; details: mouse
Source text: Figure 8. […] (B) ASAP-0036543 was assigned the (S) configuration by crystallography and the compound assumed a similar binding mode to that observed with ASAP-0029000. (C) Murine in vivo pharmacokinetics for ASAP-0036543. […] TEXT PRINTED IN THE PICTURE: (A) ASAP-0036543: ZIKV Ki (μM): 0.0029; ZIKV EC50 / EC90 / CC50 (μM, SH-SY5Y cells): 0.48 / 0.75 / 38; ZIKV EC50 / EC90 / CC50 (μM, Vero cells + pgpi): 0.38 / 0.98 / >50; WNV Ki (μM): 0.058; WNV EC50 / CC50 (μM, Vero cells + Pgpi): 1.0 / >50; %F (150, 300, 600 mpk): 96 / 153 / 223; Vd,ss (L/kg): 7.9; CLp (mL/min/kg): 87; CLint,app, HLM, MLM (μL/min/mg): < 10, <10; MDR1-MDCK Papp A→B, B→A (10^-6 cm/sec): 1.2, 16; KSol (pH 7.4, μM): 389; LogD: 1.0
The compound had high kinetic solubility, low microsomal clearance, and acceptable permeability in an MDR1-MDCK cell line. Respectable antiviral potency against WNV in Vero cells was also noted, which had been hitherto difficult to achieve with the chemotype. […] ASAP-0036543 was then advanced to murine pharmacokinetic studies to assess its potential as an in vivo tool compound.[31]

[6] = Microsomal clearance, MLM; details: mouse, microsomes
[7] = Cytotoxicity in SH-SY5Y cells; details: human
[8] = library 1, supplement, read-out: ZIKV NS2B-NS3 Ki
[9] = ZIKV NS2B-NS3 Ki (uM), library 1, supplement
[10] = Vero E6 cells, 0.5 uM CP100356 as P-gp inhibitor, read-out: CC50

T2 sequence (P06935 1424-1463): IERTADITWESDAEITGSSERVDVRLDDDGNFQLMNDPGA
T2 sequence (P06935 1502-1679): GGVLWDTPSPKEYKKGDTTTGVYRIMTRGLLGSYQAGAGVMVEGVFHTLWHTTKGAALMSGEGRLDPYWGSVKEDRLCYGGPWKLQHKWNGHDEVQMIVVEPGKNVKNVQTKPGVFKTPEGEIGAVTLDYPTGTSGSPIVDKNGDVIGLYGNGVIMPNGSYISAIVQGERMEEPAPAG
T1 sequence (A0A024B7W1 1503-1680): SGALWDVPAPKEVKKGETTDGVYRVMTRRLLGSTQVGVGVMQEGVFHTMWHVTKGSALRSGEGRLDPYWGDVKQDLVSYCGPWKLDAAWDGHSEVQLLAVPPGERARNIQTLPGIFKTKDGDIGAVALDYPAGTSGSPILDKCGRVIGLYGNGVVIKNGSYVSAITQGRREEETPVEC
T1 sequence (A0A024B7W1 1425-1464): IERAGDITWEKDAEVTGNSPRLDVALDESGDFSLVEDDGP

C[C@]1(CNC(=O)c2cc(Cl)cc(NC(=O)OCc3ccccc3)c2)CNCCOC1 [ASAP-0021641, C[C@]1(CNC(=O)c2cc(Cl)cc(NC(=O)OCc3ccccc3)c2)CNCCOC1 ¦&1:1¦]
ZIKV NS2B-NS3 pKi (ZIKV NS2B-NS3 protease; library 1, supplement): < 4.05
Ki (ZIKV NS2B-NS3 protease; [8]): > 89.3 µM

C[C@@H](N)c1cccc(NC(=O)c2cc(Cl)cc(NC(=O)OCc3ccccc3)c2)c1 [ASAP-0021650, C[C@@H](N)c1cccc(NC(=O)c2cc(Cl)cc(NC(=O)OCc3ccccc3)c2)c1]
Ki (ZIKV NS2B-NS3 protease; [9]): 20.4 µM

NCc1cc(F)cc(NC(=O)c2cc(Cl)cc(NC(=O)OCc3ccccc3)c2)c1 [ASAP-0021659, NCc1cc(F)cc(NC(=O)c2cc(Cl)cc(NC(=O)OCc3ccccc3)c2)c1]
Ki (ZIKV NS2B-NS3 protease; [9]): 5.26 µM

NC[C@H]1C[C@@H](CNC(=O)c2cc(Cl)cc(NC(=O)OCc3ccccc3)c2)CCO1 [ASAP-0021664, NC[C@H]1C[C@@H](CNC(=O)c2cc(Cl)cc(NC(=O)OCc3ccccc3)c2)CCO1 ¦&1:2,&2:4¦]
ZIKV NS2B-NS3 pKi (ZIKV NS2B-NS3 protease; library 1, supplement): < 4.05
Ki (ZIKV NS2B-NS3 protease; [8]): > 89.3 µM

NCc1ccc(CNC(=O)c2cc(Cl)cc(NC(=O)OCc3ccccc3)c2)c(F)c1 [ASAP-0021676, NCc1ccc(CNC(=O)c2cc(Cl)cc(NC(=O)OCc3ccccc3)c2)c(F)c1]
Ki (ZIKV NS2B-NS3 protease; [9]): 29.5 µM

O=C(Nc1cc(Cl)cc(C(=O)NCCC2COCCN2)c1)OCc1ccccc1 (centres unmarked) [ASAP-0022490, O=C(NC1=CC(Cl)=CC(C(=O)NCC[C@H]2COCCN2)=C1)OCC1=CC=CC=C1 ¦&1:14¦]
Ki (ZIKV NS2B-NS3 protease; [9]): > 89.3 µM

NCc1cccc(NC(=O)c2cc(Cl)cc3[nH]ncc23)c1 [ASAP-0023261]
Ligand efficiency (LE) (ZIKV NS2B-NS3 protease): 0.407
Ki (ZIKV NS2B-NS3 protease; ZIKV NS2B-NS3 Ki): 0.796 µM

O=C(Nc1ccc2c(c1)CNC2)c1cc(Cl)cc2[nH]ncc12 [ASAP-0027808]
Ligand efficiency (LE) (ZIKV NS2B-NS3 protease): 0.452
Ki (ZIKV NS2B-NS3 protease; ZIKV NS2B-NS3 Ki): 0.09 µM
Ki (WNV NS2B-NS3 protease): 2900 nM
EC50 (ZIKV [1]): 4600 nM
CC50 [2, 10]: > 50000 nM
cytotoxicity (Vero E6 cells; Vero E6 cells treated with a P-gp inhibitor, up to 50 μM): no apparent cytotoxicity
inhibition at 10 µM (urokinase): 21%
Papp A→B (MDR1-MDCK permeability): 2 ×10⁻⁶ cm/s
Papp B→A (MDR1-MDCK permeability): 11 ×10⁻⁶ cm/s
logD (LogD): 0.9
Kinetic solubility (Kinetic solubility): 279 µM
microsomal CLint [3]: < 10 µL/min/mg

N#C[C@@H](Nc1ccc2c(c1)CNC2)c1cc(Cl)cc2[nH]ncc12 [ASAP-0028904]
Ki (ZIKV NS2B-NS3 protease; ZIKV NS2B-NS3 Ki): 0.1 µM
Ki (WNV NS2B-NS3 protease): 18000 nM
Papp A→B (MDR1-MDCK permeability): 1.1 ×10⁻⁶ cm/s
logD (LogD): 0.9

OCC#C[C@@H](Nc1ccc2c(c1)CNC2)c1cc(Cl)cc2[nH]ncc12 [ASAP-0028990]
Ki (ZIKV NS2B-NS3 protease; ZIKV NS2B-NS3 Ki): 0.99 µM
Ki (WNV NS2B-NS3 protease): 21000 nM
Papp A→B (MDR1-MDCK permeability): 0.59 ×10⁻⁶ cm/s
logD (LogD): 0.5

CC(C)NC(=O)[C@@H](Nc1ccc2c(c1)CNC2)c1cc(Cl)cc2[nH]ncc12 [ASAP-0029000]
Ki (ZIKV NS2B-NS3 protease; ZIKV NS2B-NS3 Ki): 0.077 µM
Ki (WNV NS2B-NS3 protease): 320 nM
Papp B→A (MDR1-MDCK permeability): 2.2 ×10⁻⁶ cm/s
logD (LogD): 0.5

C=CC[C@@H](Nc1ccc2c(c1)CNC2)c1cc(Cl)cc2[nH]ncc12 [ASAP-0029049]
Ki (ZIKV NS2B-NS3 protease; ZIKV NS2B-NS3 Ki): 7.1 µM

Clc1cc(CNc2ccc3c(c2)CNC3)c2cn[nH]c2c1 [ASAP-0029525]
Ki (ZIKV NS2B-NS3 protease; ZIKV NS2B-NS3 Ki): 2.9 µM
Ki (WNV NS2B-NS3 protease): 43000 nM
EC50 (ZIKV [1]): 17900 nM
CC50 [2, 10]: 29800 nM

CC(C)NC(=O)[C@@H](Nc1ccc2c(c1)CNC2)c1cc(Cl)cc2[nH]ncc12 [ASAP-0029974]
Ki (ZIKV NS2B-NS3 protease; ZIKV NS2B-NS3 Ki): 0.048 µM
Ki (WNV NS2B-NS3 protease): 360 nM
EC50 (ZIKV [1]): 5700 nM
CC50 [2, 10]: > 50000 nM
logD (LogD): 0.5

CC(C)NC(=O)[C@@H](Nc1ccc2c(c1)CN(C)C2)c1cc(Cl)cc2[nH]ncc12 [ASAP-0031156]
Ki (ZIKV NS2B-NS3 protease; ZIKV NS2B-NS3 Ki): 0.48 µM
Ki (WNV NS2B-NS3 protease): 1600 nM

Cc1cc(C(Nc2ccc3c(c2)CNC3)C(=O)NCC(F)F)cc(C(F)(F)F)c1 (centres unmarked) [ASAP-0031651]
Ki (ZIKV NS2B-NS3 protease; Ki, ZIKV NS2B-NS3): 0.0078 µM
EC50 (ZIKV [1]): 450 nM

Cc1cc([C@H](Nc2ccc3c(c2)CNC3)C(=O)NCC(F)F)cc(C(F)(F)F)c1 [ASAP-0036543]
Ki (ZIKV NS2B-NS3 protease; ZIKV NS2B-NS3 Ki): 0.0029 µM
Ki (WNV NS2B-NS3 protease): 58 nM
EC50 (ZIKV [1]): 380 nM
EC90 (ZIKV [1]; Vero, read-out: ZIKV EC90 (Vero cells + pgpi)): 980 nM
CC50 ([2]; Vero cells + Pgpi, printed with WNV EC50, read-out: CC50 (WNV assay, Vero cells + Pgpi)): > 50000 nM
CC50 (Vero E6 cells; Vero E6 cells, 0.5 uM CP100356 as P-gp inhibitor): > 50000 nM
EC50 (ZIKV [4]; read-out: ZIKV EC50 (SH-SY5Y cells)): 480 nM
EC90 (ZIKV [4]; read-out: ZIKV EC90 (SH-SY5Y cells)): 750 nM
EC50 (WNV): 1000 nM
Papp A→B (MDR1-MDCK permeability): 1.2 ×10⁻⁶ cm/s
Papp B→A (MDR1-MDCK permeability): 16 ×10⁻⁶ cm/s
bioavailability ([5]; in vivo, 150 mg/kg, PO 150 mpk, read-out: %F): 96%
bioavailability ([5]; in vivo, 300 mg/kg, PO 300 mpk, read-out: %F): 153%
bioavailability ([5]; in vivo, 600 mg/kg, PO 600 mpk, read-out: %F (oral bioavailability)): 223%
clearance ([5]; in vivo, read-out: CLp): 87 mL/min/kg
Vd ([5]; in vivo, read-out: Vd,ss): 7.9 L/kg
tolerability ([5]; single PO doses of 150, 300 and 600 mg/kg): well-tolerated
logD (LogD): 1
solubility kinetic (Kinetic solubility): 389 µM (≈ 161 µg/mL)
microsomal CLint [3]: < 10 µL/min/mg
microsomal CLint [6]: < 10 µL/min/mg
CC50 [7]: 38000 nM

CC(C)(CO)NC(=O)c1cccc(Cl)c1 [Z68299550]
inhibition in biochemical assay (ZIKV NS2B-NS3 protease; @ 100 μM): n.i.

O=C(Nc1cc(Cl)cc(C(=O)Nc2ccc3c(c2)CNC3)c1)OCc1ccccc1 [ASAP-0020915]
Ligand efficiency (LE) (ZIKV NS2B-NS3 protease): 0.316
ZIKV NS2B-NS3 pKi (ZIKV NS2B-NS3 protease; library 1, supplement): 6.77
Ki (ZIKV NS2B-NS3 protease; [8]): 0.164 µM
